The values that follow come from patent publication US11046721B2, “Ruthenium-based photolinkers and methods of use” (The Trustees of the University of Pennsylvania, priority 2014, dated 2021).

A short description of data set [1]: Selective photoactivation of Ru photolinkers (FIG. 25B). The format is physicochemical. From the text:
FIG. 25, comprising FIG. 25A-25B, depicts exemplary compounds of the invention.
Compounds [Ru(bpy)2(4-pentynenitrile)2][Cl]2 (Ru420) and [Ru(biq)2(4-pentynenitrile)2][Cl]2 (Ru530) are compounds of the invention which are useful for multiplexing of DNA and morpholino oligonucleotides (FIG. 25A).

For data set [2] the following is noted: 450-nm light, 53 mW/cm^2, 80 μM, 1.5 mL, stirred.
Experimental: Light source: 450 nm laser (14 mW/cm^2), 14 μM RuBEP in water, 0.2 OD.
A sapphire Galaxy Blue handheld laser was purchased from Beam of Light Technologies (Oregon, USA) and used to determine the quantum yield of RuBEP. Measured power at the sample was 53 mW/cm^2, with a maximum output wavelength of 450 nm.
Photodissociation of 3EP from RuBEP was monitored by LCMS (FIG. 4), UV-Vis (FIG. 6B) and ^1H and ^13C NMR (FIG. 5) spectroscopies. Upon continuous irradiation with 450-nm light (53 mW/cm^2, focused to 0.5 cm^2), the λmax red-shifted from 450 nm to 473 nm (FIG. 6B).
The formula for fitting the initial kinetics of the photoreaction is as follows:
[formula] Where: P1=net power of the laser during the trial (mW) E=energy of 450 nm light (J/photon) εs=extinction coefficient of RuBEP (starting material) at 475 nm=1800 M^−1cm^−1 εp=extinction coefficient of Rubpy2(3EP)(H2O)(product) at 475 nm=3800 M^−1cm^−1
For data set [3] the following is noted: reported, Zayat et al. 2003; cited from earlier work.
The test system of a further data set is notail (ntl). As to the kind of experiment: ntl knockdown phenotype in microinjected zebrafish embryos. The format is in vivo. Conditions: 0.25 mM injected at 1-cell stage, 24 hpf. On the procedure: (§1) FIG. 16A is an image of a wildtype embryo, uninjected. […] All embryos were injected at 1-cell stage. […] MO Control: Zebrafish embryos were injected at the 1-cell stage with 0.25 mM ntl-MO and imaged at 24 hpf. Ru-MO-ntl: Zebrafish embryos were injected at the 1-cell stage with 0.25 mM Ru-MO-ntl. Half of the embryos were irradiated (450 nm, 14 mW/cm^2, 5 min) at 1 hpf, while the other half were incubated in the dark. Embryos were scored for phenotype at 24 hpf and compared to wildtype.
FIG. 17 is a series of images depicting zebrafish, including the ntl-MO knockdown phenotype. Zebrafish embryos were injected at the 1-cell stage with 0.25 mM ntl-MO and imaged at 24 hpf. […] Class 2 was identified by U-shaped somites, a shortened posterior axis, with the notochord still present.
FIG. 19 is a graph depicting Ru-cMO-ntl in vivo data. MO Control:Zebrafish embryos were injected at the 1-cell stage with 0.25 mM ntl-MO and imaged at 24 hpf. Ru-cMO-ntl:Zebrafish embryos were injected at the 1-cell stage with 0.25 mM Ru-cMO-ntl. Half of the embyros were irradiated (450 nm, 14 mW/cm^2, 5 min) at 1 hpf, while the other half were incubated in the dark. Embryos were scored for phenotype at 24 hpf and compared to wildtype.
Zebrafish embryos were obtained. All embryos obtained were TLF×TLF WT. […]

A further data set relates to chordin (chd). As to the kind of experiment: chd knockdown phenotype in microinjected zebrafish embryos. The data set is classed as in vivo. As to conditions: incubated in the dark; for Phenotype of embryos: injected at 1-cell stage, 24-28 hpf. On the procedure: FIG. 15 is a series of images depicting zebrafish, including the chd-MO knockdown phenotype. Zebrafish embryos were injected at the 1-cell stage with 0.51 mM chd-MO and imaged at 24 hpf. […] Embryos scored as normal had V-shaped somites, and normal head and tail development. Severe was identified by decreased head size, U-shaped somites, and a large blood island on the tail. The moderate and mild phenotypes were identified by U-shaped somites and a medium or small blood island on the tail.
as §1
Zebrafish embryos were obtained. All embryos obtained were TLF×TLF WT. Zebrafish embryo injection solutions were prepared to contain a final concentration of 0.1 M KCl and 0.25% phenol red dye. All injections were performed at the one-cell stage and injected into the cell compartment only. A Harvard Apparatus PLI-100 pico-injector was used to inject controlled volumes. Injection volume was calibrated to dispense 5 nL per embryo. Zebrafish embryos were incubated at 28° C. in E3 zebrafish medium. […]
MO-chd or Ru-cMO-chd (514 pmol/μL) was microinjected into 1-cell-stage zebrafish embryos, which were incubated at 28° C. in the dark and at 24 hours post-fertilization (hpf), scored for phenotypic response and imaged using a previously reported method (Westerfield, from “The Zebrafish Book. A guide for the Laboratory Use of Zebrafish (Danio rerio).” 4th ed.; University of Oregon Press, 2000). Embryos scored as normal had V-shaped somites, and normal head and tail development. […]

As to “[Ru(biquinoline)2(4- pentynenitrile)2]^2+ [Ru530]”, the Selective activation result in data set [1] is “can be selectively activated”.
On to “[Ru(bipyridine)2(4- pentynenitrile)2]^2+ [Ru420]”, for which the Selective activation result in data set [1] is on record as “can be selectively activated”.
As for “[Ru(bipyridine)2(3-ethynyl- pyridine)2]^2+ [RuBEP]”, the “Time to complete photolysis of bulk solution” value in data set [2] is listed as 5 min. For the same compound, the Selective activation result in data set [1] is given as “can be selectively activated”.
Regarding `[Cl-].[Cl-].[Ru+2].c1ccc(-c2ccccn2)nc1.c1ccc(-c2ccccn2)nc1.c1ccncc1.c1ccncc1` [Ru(bpy)2(pyr)2Cl2], in data set [3], the “Quantum yield of ligand exchange” value is given as 0.4.
“ntl-MO: linear antisense morpholino targeting notail, AGCTTGAGATAAGTCCGACGATCCT (SEQ ID NO: 7) (all phosphorodiamidate morpholino (PMO))”: in the data set on notail (ntl), the ntl knockdown phenotype result was “severe (class 4) to mild (class 2)”.
With “MO-chd: linear antisense morpholino targeting chordin, ATCCACAGCAGCCCCTCCATCATCC (SEQ ID NO: 4) (all phosphorodiamidate morpholino (PMO))”, the “Embryos with normal phenotype” value in the data set on chordin (chd) (MO-chd control injections, 24 hpf) was about 5%. Moreover, the results for the Phenotype of embryos result in the data set with chordin (chd) (listed as Bis-azido chd-MO) and in the data set with chordin (chd) (listed as chd-MO) were “chd knockdown phenotype” and “severe to mild”, respectively.
